From patent US20040242660A1, “Substituted oxazolidinones for combinational therapy” (priority 2001, published 2004) come the findings set out here.

For test [1], the system named is thrombus formation in an arteriovenous shunt. Kind of test: Arteriovenous shunt model (rat), antithrombotic effect. The format is in vivo. The protocol:
b.1) Arteriovenous Shunt Model (Rat) Fasting male rats (strain: HSD CPB:WU) weighing 200-250 g were anesthetized with a Rompun/Ketavet solution (12 mg/kg/50 mg/kg). Thrombus formation was induced in an arteriovenous shunt by a method based on that described by Christopher N. Berry et al., Br. J. Pharmacol. (1994), 113, 1209-1214. For this purpose, the left jugular vein and the right carotid artery were exposed. An extracorporeal shunt was formed between the two vessels using a 10 cm-long polyethylene tube (PE 60). This polyethylene tube was secured in the middle by tying in a further 3 cm-long polyethylene tube (PE 160) which contained a roughened nylon thread forming a loop to produce a thrombogenic surface. The extracorporeal circulation was maintained for 15 minutes. The shunt was then removed and the nylon thread with the thrombus was immediately weighed. The blank weight of the nylon thread had been found before the start of the experiment. The test substances were administered either intravenously through the tail vein or orally by gavage to conscious animals before setting up the extracorporeal circulation.

Test [2] deals with human factor Xa (FXa) (Homo sapiens, UniProt P00742). Kind of test: Measurement of factor Xa inhibition (chromogenic substrate). The format is biochemical. The procedure:
a.1) Measurement of Factor Xa Inhibition
In this case, factor Xa eliminates p-nitroaniline from the chromogenic substrate.
The test substances were dissolved in various concentrations in DMSO and incubated with human FXa (0.5 nmol/l dissolved in 50 mmol/l tris buffer [C,C,C-tris(hydroxymethyl)-aminomethane], 150 mmol/l NaCl, 0.1% BSA (bovine serum albumine), pH=8,3) at 25° C. for 10 minutes. Pure DMSO serves as control.

Test [3] has as its system thrombus in the carotid artery of rats. The test is described as follows: Rat thrombosis model (FeCl3-induced carotid artery thrombus), combinations. The format is in vivo. To be noted: 1 mg/kg of each active ingredient; for Reduction in thrombus weight after oral treatment: 10 rats per group; for Reduction in thrombus weight after oral treatment / Statistical significance of the reduction in thrombus weight (Student's t-test): oral; for Statistical significance of the reduction in thrombus weight (Student's t-test): p<0.05 regarded as significant; for Antithrombotic effect: single dosage or combination. The protocol: a) In vivo Investigations in a Rat Thrombosis Model The carotid artery of rats (HSD CPB:WU, Harlan Winkelmann) was exposed under anesthesia. A piece of filter paper impregnated with an aqueous 10% strength FeCl3 solution (dissolved in 1N aqueous hydrochloric acid) was cautiously pushed underneath the exposed vessel in accordance with the method described by Kurz et al. […] After 3 minutes, the piece of filter paper was removed. The carotid artery was removed after 15 minutes, and the thrombus was detached and immediately weighed. […] The animals in the control group had been treated with the corresponding solvent. The statistical significance was calculated using Student's t-test. Values with p<0.05 are regarded as a statistically significant effect (Medical Statistics, M J Campbell, […], Second Edition, John Wiley & Sons).

[4] abbreviates: intravenous administration, read-out: ED50 [mg/kg] i.v.
[5] abbreviates: oral administration, read-out: ED50 [mg/kg] p.o.

Where two headings read alike, the source gives them in different places.

Chain of human factor Xa (FXa) (P00742 235-488 limits assumed): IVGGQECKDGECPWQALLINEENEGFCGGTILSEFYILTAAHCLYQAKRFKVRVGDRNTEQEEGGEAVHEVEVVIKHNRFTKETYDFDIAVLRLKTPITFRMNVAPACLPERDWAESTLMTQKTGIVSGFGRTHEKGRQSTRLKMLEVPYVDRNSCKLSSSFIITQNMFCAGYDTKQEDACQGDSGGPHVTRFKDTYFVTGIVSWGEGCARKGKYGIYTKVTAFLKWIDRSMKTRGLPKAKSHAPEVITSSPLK
Chain of human factor Xa (FXa) (P00742 41-179 partner limits assumed): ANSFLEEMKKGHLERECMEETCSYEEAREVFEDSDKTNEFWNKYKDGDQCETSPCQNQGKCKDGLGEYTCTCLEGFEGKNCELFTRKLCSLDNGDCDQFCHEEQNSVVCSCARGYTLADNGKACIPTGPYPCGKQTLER

For the compound `Cc1cc(N2CC(CNC(=O)c3ccc(Cl)s3)OC2=O)ccc1N1CCOCC1=O` (stereo not drawn) [Example 115, 5-Chloro-N-({3-[3-methyl-4-(3-oxo-4-morpholinyl)phenyl]-2-oxo-1,3-oxazolidin-5-yl}methyl)-2-thiophenecarboxamide], the ED50 in test [1] (setting [4]) turned out to be 3 mg/kg.
In the case of `O=C(NC[C@H]1CN(c2ccc(N3CCCCC3=O)cc2)C(=O)O1)c1ccc(Cl)s1` [Example 162, 5-Chloro-N-({(5S)-2-oxo-3-[4-(2-oxo-1-piperidinyl)phenyl]-1,3-oxazolidin-5-yl}-methyl)-2-thiophenecarboxamide], the ED50 in test [1] (setting [4]) was 3 mg/kg. For the same compound, inhibition in test [2] (factor Xa inhibition) was half-maximal at 0.0028 µM (IC50).
Consider `O=C(NC[C@H]1CN(c2ccc(N3CCOCC3)c(F)c2)C(=O)O1)c1ccc(Cl)s1` [Example 1, 5-chloro-N-{[(5S)-3-(3-fluoro-4-morpholinophenyl)-2-oxo-1,3-oxazolidin-5-yl]methyl}-2-thiophenecarboxamide], for which the ED50 in test [1] (setting [4]) turned out to be 10 mg/kg.
Turning to `O=C(NC[C@H]1CN(c2ccc(N3CCCC3=O)cc2)C(=O)O1)c1ccc(Cl)s1` [Example 17, 5-Chloro-N-({(5S)-2-oxo-3-[4-(2-oxo-1-pyrrolidinyl)phenyl]-1,3-oxazolidin-5-yl}methyl)-2-thiophenecarboxamide], in test [1] (setting [4]), the ED50 was determined as 6 mg/kg.
For the compound `O=C(NC[C@H]1CN(c2ccc(S(=O)(=O)N3CCOCC3)cc2)C(=O)O1)c1ccc(Cl)s1` [Example 38, 5-Chloro-N-({(5S)-3-[4-(4-morpholinylsulfonyl)phenyl]-2-oxo-1,3-oxazolidin-5-yl}methyl)-2-thiophenecarboxamide], the midpoint of inhibition in test [2] (factor Xa inhibition), the IC50, lay at 2 µM.
On to `O=C(NC[C@H]1CN(c2ccc(N3CCOCC3=O)cc2)C(=O)O1)c1ccc(Cl)s1` [Example 44, 5-Chloro-N-({(5S)-2-oxo-3-[4-(3-oxo-4-morpholinyl)phenyl]-1,3-oxazolidin-5-yl}methyl)-2-thiophenecarboxamide], for which, in test [3], the “Reduction in thrombus weight after oral treatment” value is 22%, the “Statistical significance of the reduction in thrombus weight (Student's t-test)” value is on record as “no effect (p > 0.05)” and the “Antithrombotic effect” value is “inactive”. Moreover, the ED50 in test [1] (setting [5]) came to 3 mg/kg.
On to `Nc1ccc(N2CC(CNC(=O)c3ccc(Cl)s3)OC2=O)cc1` (stereo not drawn) [Example 149, N-{[3-(4-Aminophenyl)-2-oxo-1,3-oxazolidin-5-yl]methyl}-5-chloro-2-thiophenecarboxamide], for which, in test [2] (factor Xa inhibition), the IC50 (as a rule, the concentration at which inhibition is half-maximal) turned out to be 2 µM.
Same read-out and setting: in the case of `CC(=O)N(c1ccc(N2CC(CNC(=O)c3ccc(Cl)s3)OC2=O)cc1)C1CC1` (stereo not drawn) [Example 98, N-[(3-{4-[Acetyl(cyclopropyl)amino]phenyl}-2-oxo-1,3-oxazolidin-5-yl)methyl]-5-chloro-2-thiophenecarboxanmide] it was 0.05 µM.
In the case of `O=C(NCC1CN(c2ccc(N3CCOCC3=O)c(F)c2)C(=O)O1)c1ccc(Cl)s1` (stereo not drawn) [Example 95, 5-Chloro-N-({3-[3-fluoro-4-(3-oxo-4-morpholinyl)phenyl]-2-oxo-1,3-oxazolidin-5-yl}methyl)-2-thiophenecarboxamide], the ED50 in test [1] (setting [4]) worked out at 3 mg/kg.
Turning to `Cc1ccc(C(=O)NCC2CN(c3ccc(N4CCCC4=O)cc3)C(=O)O2)s1` (stereo not drawn) [Example 42, 5-Methyl-N-({2-oxo-3-[4-(2-oxo-1-pyrrolidinyl)phenyl]-1,3-oxazolidin-5-yl}methyl)-2-thiophenecarboxamide], the IC50 in test [2] (factor Xa inhibition) was found to be 0.16 µM.
Compound `O=C(NCC1CN(c2ccc(-n3cccc3)cc2)C(=O)O1)c1ccc(Cl)s1` (stereo not drawn) [Example 139] yielded an IC50 in test [2] of 1.7 µM.
Compound `O=C(NCC1CN(c2ccc(NS(=O)(=O)CCCCl)cc2)C(=O)O1)c1ccc(Cl)s1` (stereo not drawn) [Example 159, 5-Chloro-N-{[3-(4-{[(3-chloropropyl)sulfonyl]amino}phenyl)-2-oxo-1,3-oxazolidin-5-yl]methyl}-2-thiophenecarboxamide] registered an IC50 in test [2] (factor Xa inhibition) of 1.7 µM.
In the case of `NCC(=O)Nc1ccc(N2CC(CNC(=O)c3ccc(Cl)s3)OC2=O)cc1` (stereo not drawn) [Example 150, 5-Chloro-N-({3-[4-(glycylamino)phenyl]-2-oxo-1,3-oxazolidin-5-yl}methyl)-2-thiophenecarboxamide], the midpoint of inhibition in test [2] (factor Xa inhibition), the IC50, lay at 2 µM.
As for `Nc1cc(N2CC(CNC(=O)c3ccc(Cl)s3)OC2=O)ccc1N1CCOCC1=O` (stereo not drawn) [Example 123, N-({3-[3-Amino-4-(3-oxo-4-morpholinyl)phenyl]-2-oxo-1,3-oxazolidin-5-yl}-methyl)-5-chloro-2-thiophenecarboxamide], the ED50 in test [1] (setting [5]) was determined as 3 mg/kg.
Take `O=C(NC[C@H]1CN(c2ccc(N3CCCC3=O)c(F)c2)C(=O)O1)c1ccc(Br)s1` [Example 128]: the IC50 in test [2] worked out at 0.002 µM.
For the compound `O=C(NCC1CN(c2ccc(N3CCC(O)C3)c(F)c2)C(=O)O1)c1ccc(Cl)s1` (stereo not drawn) [Example 133], the IC50 in test [2] turned out to be 0.062 µM.
In the case of `O=C(NCC1CN(c2ccc(N3CCOCC3=O)c(C(F)(F)F)c2)C(=O)O1)c1ccc(Cl)s1` (stereo not drawn) [Example 114, 5-Chloro-N-({2-oxo-3-[4-(3-oxo-4-morpholinyl)-3-(trifluoromethyl)phenyl]-1,3-oxazolidin-5-yl}methyl)-2-thiophenecarboxamide], the ED50 in test [1] (setting [4]) is 3 mg/kg.
In turn, `O=C(NC[C@H]1CN(c2ccc(N3CCCCC3=O)cc2)C(=O)O1)c1ccc(Br)s1` [Example 129] displayed an IC50 in test [2] of 0.001 µM.
Consider `NC(=O)NCc1ccc(N2CC(CNC(=O)c3ccc(Cl)s3)OC2=O)cc1` (stereo not drawn) [Example 154, N-{[3-(4-{[(Aminocarbonyl)amino]methyl}phenyl)-2-oxo-1,3-oxazolidin-5-yl]-methyl}-5-chloro-2-thiophenecarboxamide], for which, in test [2] (factor Xa inhibition), the IC50 was found to be 1.3 µM.
For the compound `CCN(CC)c1ccc(N2C[C@H](CNC(=O)c3ccc(Cl)s3)OC2=O)cc1` [Example 19, 5-Chloro-N-({(5S)-2-oxo-3-[4-(diethylamino)phenyl]-1,3-oxazolidin-5-yl}methyl)-2-thiophenecarboxamide], the 50% inhibitory concentration (IC50) in test [2] (factor Xa inhibition) is 0.27 µM.
Consider `N#Cc1cc(N2C[C@H](CNC(=O)c3ccc(Cl)s3)OC2=O)ccc1N1CCCC1` [Example 54], for which half-maximal inhibition in test [2] (table of Examples 48-58) (IC50) required 0.13 µM.
With `CC(=O)Nc1ccc(N2CC(CNC(=O)c3ccc(Cl)s3)OC2=O)cc1` (stereo not drawn) [Example 155, N-({3-[4-(Acetylamino)phenyl]-2-oxo-1,3-oxazolidin-5-yl}methyl)-5-chloro-2-thiophenecarboxamide], the midpoint of inhibition in test [2] (factor Xa inhibition), the IC50, lay at 1.2 µM.
Take `COC(=O)[C@H](c1ccccc1Cl)N1CCc2sccc2C1` [Clopidogrel, clopidogrel, reference compound]: in test [3], the “Reduction in thrombus weight after oral treatment” value came to 28%, the “Statistical significance of the reduction in thrombus weight (Student's t-test)” value was “no effect (p > 0.05)” and the “Antithrombotic effect” value is “inactive”.
On to `O=C(NC[C@H]1CN(c2ccc(N3CCCC3=O)cc2)C(=O)O1)c1ccc(Br)s1` [Example 56], for which it took 0.004 µM to reach half-maximal inhibition in test [2] (table of Examples 48-58) (IC50). This counts as single-digit nanomolar.
On to `O=C(NCC1CN(c2ccccc2)C(=O)O1)c1ccc(Cl)s1` (stereo not drawn) [Example 96, 5-Chloro-N-[(2-oxo-3-phenyl-1,3-oxazolidin-5-yl)methyl]-2-thiophenecarboxamide], for which, in test [2] (factor Xa inhibition), inhibition was half-maximal at 2 µM (IC50).
Compound `O=C(NCC1CN(c2ccc(N3CCCC3=O)cc2)C(=O)O1)c1cccs1` (stereo not drawn) [Example 41, N-({2-oxo-3-[4-(2-oxo-1-pyrrolidinyl)phenyl]-1,3-oxazolidin-5-yl}methyl)-2-thiophenecarboxamide] gave an IC50 in test [2] (factor Xa inhibition) of 1.3 µM.
Regarding `CC1Oc2cc(N3C[C@H](CNC(=O)c4ccc(Cl)s4)OC3=O)ccc2N(C)C1=O` (stereo partly drawn) [Example 50], the 50% inhibitory concentration (IC50) in test [2] (table of Examples 48-58) stood at 1.15 µM.
